Test results as given in ChEMBL document CHEMBL1795224, “Synthesis, in vitro antioxidant, anthelmintic and molecular docking studies of novel dichloro substituted benzoxazole-triazolo-thione derivatives” (2011).
The source made the active and inactive calls. The rule behind the calls is not given here.

Tests used:
Type in all cases: functional
[1] = Antioxidant activity assessed as ascorbic acid equivalent antioxidant capacity at 50 to 100 ug after 90 mins by phosphomolybdenum method
[2] = Antioxidant activity assessed as potassium ferric cyanide ion reducing power at 50 to 100 ug after 20 mins
[3] = tested on: Radical scavenging activity; assay: Antioxidant activity assessed as DPPH free radical scavenging activity at 20 ug/4ml after 30 mins
[4] = tested on: Metaphire posthuma; assay: Anthelmintic activity against Pheretima posthuma assessed as time taken for complete paralysis
[5] = tested on: Metaphire posthuma; assay: Anthelmintic activity against Pheretima posthuma assessed as death time
[6] = tested on: Metaphire posthuma; assay: Anthelmintic activity against Pheretima posthuma assessed as time taken for complete paralysis at 1 %
[7] = tested on: Metaphire posthuma; assay: Anthelmintic activity against Pheretima posthuma assessed as time taken for complete paralysis at 2 %
[8] = tested on: Metaphire posthuma; assay: Anthelmintic activity against Pheretima posthuma assessed as time taken for complete paralysis at 3 %
[9] = tested on: Metaphire posthuma; assay: Anthelmintic activity against Pheretima posthuma assessed as death time at 1 %
[10] = tested on: Metaphire posthuma; assay: Anthelmintic activity against Pheretima posthuma assessed as death time at 2 %
[11] = tested on: Metaphire posthuma; assay: Anthelmintic activity against Pheretima posthuma assessed as death time at 3 %

| Structure (SMILES) | Activity [1] | Activity [2] | Activity [3] | Activity [4] | Time [5] | Time [6] | Time [7] | Activity [8] | Time [9] | Time [10] | Time [11] |
| --- | --- | --- | --- | --- | --- | --- | --- | --- | --- | --- | --- |
| CCOC(=O)CSc1nnc2oc3c(Cl)cc(Cl)cc3n12 | Active | Active | 65.7% | Dose-dependent effect | 5.92 min | 4.74 min | 4 min | Dose-dependent effect | 6.13 min | 5.95 min | 4.85 min |
| Sc1nc2cc(Cl)cc(Cl)c2o1 |  | inactive | 32.1% | Dose-dependent effect | 8.22 min | 7.27 min | 3.2 min | Dose-dependent effect | 9.05 min | 7.83 min | 5.95 min |
| S=c1[nH]nc2oc3c(Cl)cc(Cl)cc3n12 | Active | Active | 74.8% | Dose-dependent effect | 5.48 min | 4.29 min | 3.82 min | Dose-dependent effect | 6.48 min | 5.49 min | 4.12 min |
| CCCSc1ccc2[nH]c(NC(=O)OC)nc2c1 [ALBENDAZOLE] |  |  |  |  | 5.37 min |  |  |  | 7.2 min |  |  |
| Cc1cc(C(C)(C)C)c(O)c(C(C)(C)C)c1 |  |  | 16.2% |  |  |  |  |  |  |  |  |
| CCOC(=O)CSc1nc2cc(Cl)cc(Cl)c2o1 |  | inactive | 9.49% | Dose-dependent effect | 6.61 min | 5.87 min | 5.28 min | Dose-dependent effect | 7.23 min | 6.37 min | 5.75 min |
| NNc1nc2cc(Cl)cc(Cl)c2o1 | Active | Active | 81.5% | Dose-dependent effect | 4.42 min | 3.57 min | 3.08 min | Dose-dependent effect | 4.77 min | 4.22 min | 3.23 min |
| O=[N+]([O-])c1ccc(NCn2nc3oc4c(Cl)cc(Cl)cc4n3c2=S)cc1 | Active | Active | 18% | Dose-dependent effect | 7.95 min | 6.58 min | 5.97 min | Dose-dependent effect | 8.33 min | 7.07 min | 6.64 min |
